The text below walks through data of patent publication US9896663B2, “Leukaemia stem cell line, its method of production and uses thereof” (Peter MacCallum Cancer Institute, priority 2016, dated 2018).

Experiment [1] has as its system Murine HSPCs transduced with MLL-AF9. In words: Selection of MLL-AF9 transduced HSPCs in cytokine-supplemented methylcellulose with I-BET (IC40). The experiment is classed as cell-based, mouse.
Description: Initial generation of immortalised parental cell lines was achieved through magnetic bead selection (Miltenyi Biotec) of c-kit positive cells, obtained from whole bone marrow of male and female C57BL/6 mice, and subsequent retroviral transduction with either an MSCV-MLL-AF9-IRES-YFP or an MSCV-MLL-ENL construct.
Individual vehicle-treated or resistant colonies were picked and transferred to liquid culture to generate clonal cell lines. […] Vehicle-treated clones were also continuously maintained in 0.1% DMSO and passaged in identical fashion. The parental cell line was continuously maintained with no exposure to vehicle or drug.
For experiment [2], the system named is vehicle treated cells / I-BET naive bulk leukaemia cells. In words: Clonogenic, apoptosis and cell cycle assays, vehicle treated (I-BET naive) cells. The experiment is classed as cell-based, mouse. The procedure: (§1) Clonogenic potential was assessed through colony growth of derived cell lines plated in cytokine supplemented methylcellulose (Methocult M3434, Stemcell Technologies). […] Gr1−/CD11b- and Gr1+/CD11b+ fractions of resistant cell lines were plated in duplicate following FACS sorting at a cell dose of between 2×10^2 and 2×10^3 cells per plate. […] Cells were incubated at 37° C. and 5% CO2 for 7 to 10 days at which time colonies were counted.
(§2) Cell apoptosis was assessed using APC conjugated Annexin V (550475, BD Biosciences) and propidium iodide (PI) (P4864, Sigma-Aldrich) staining according to manufacturer's instructions.
(§3) For cell cycle analysis, cells were fixed overnight at −20° C. in 70% EtOH/PBS. Prior to flow cytometry analysis, cells were incubated at 37° C. for 30 minutes in PI staining solution (0.02 mg/mL PI, 0.05% v/v Triton-X in PBS, supplemented with DNase-free RNase A (19101, Qiagen) or incubated at room temperature for 10 minutes with 4′,6-diamidino-2-phenylindole (DAPI) staining solution (1 μg/ml DAPI, 0.05% v/v Triton-X in PBS).

The subject of the next experiment is I-BET resistant cells. Description: Clonogenic, apoptosis and cell cycle assays, I-BET resistant cells. Type of experiment: cell-based, mouse. Particulars: FIG. 1D-F. On the procedure:
as §1, §2, §3

Experiment [3] has as its system L-GMPs from I-BET naive mice. Description: Clonogenic assay of sorted I-BET naive L-GMPs. As to conditions: 1 μM I-BET; FIG. 2H. The experiment is classed as cell-based, mouse. The procedure:
as §1
Immunophenotype assessment for markers of committed differentiation was undertaken through staining with Alexa Fluor 700 anti-Gr-1 (108422, BioLegend) and Brilliant Violet 605 anti-CD11b (101237, BioLegend). Assessment of L-GMP populations was undertaken through staining with eFluor 660 anti-CD34 (50-0341-82, eBioscience), biotin lineage antibody cocktail (120-001-547, Miltenyi Biotec), PerCP/Cy5.5 anti-CD16/32 (101324, BioLegend), APC/Cy7 anti-CD117 (105826, BioLegend) and Pacific Blue anti-Ly-6A (122520, BioLegend) followed by secondary staining with V500 streptavidin (561419, BD Biosciences). […]

In experiment [4] the test system is MLL-AF9 AML, parental cell line. In words: Syngeneic transplantation AML model, recipients of the parental cell line, survival. Particulars: I-BET 20-30 mg/kg IP; P<0.01, n=6, log-rank; FIG. 1H. The experiment is classed as in vivo, C57BL/6 mice. The procedure: (§4) Serial syngeneic transplantation studies of drug efficacy, generation of in vivo resistance and limit dilution analyses were performed with intravenous injection of between 10 to 2.5×10^6 cells per mouse obtained from bone marrow or spleen.
(§5) Syngeneic transplantation studies were performed in C57BL/6 mice (wild type or expressing Ptprc^a). All mice were 6-10 weeks old at the time of sub-lethal irradiation (300 cGy) and intravenous cell injection. […] Mice were randomly assigned treatment groups; treatment administration was not blinded. Sample sizes were determined according to the resource equation method. Differences in Kaplan-Meier survival curves were analysed using the log-rank statistic.

Experiment [5] relates to MLL-AF9 AML, I-BET resistant cell line. Description: Syngeneic transplantation AML model, recipients of resistant cells, survival. As to conditions: identical treatment strategy; P=0.877, n=6, log-rank; FIG. 1I. The experiment is classed as in vivo, C57BL/6 mice. The procedure: as §4, §5
The test system of experiment [6] is human AML patient derived xenograft. Description: Patient derived xenograft (PDX) model of AML. The experiment is classed as in vivo, NOD SCID gamma (NSG) mice. Particulars: I-BET 10 mg/kg for 2 weeks; FIG. 2G. The source says: Immunophenotype assessment for markers of committed differentiation was undertaken through staining with Alexa Fluor 700 anti-Gr-1 (108422, BioLegend) and Brilliant Violet 605 anti-CD11b (101237, BioLegend). Assessment of L-GMP populations was undertaken through staining with eFluor 660 anti-CD34 (50-0341-82, eBioscience), biotin lineage antibody cocktail (120-001-547, Miltenyi Biotec), PerCP/Cy5.5 anti-CD16/32 (101324, BioLegend), APC/Cy7 anti-CD117 (105826, BioLegend) and Pacific Blue anti-Ly-6A (122520, BioLegend) followed by secondary staining with V500 streptavidin (561419, BD Biosciences). Assessment of leukemic LMPP and GMP populations in patient derived xenografts was undertaken through staining with APC/Cy7 anti-mouse CD45.1 (110716, Biolegend), eFluor 450 anti-mouse Ter119 (48-5921-82, eBioscience), FITC anti-human CD45 (11-9459-42, eBioscience), BV711 anti-human CD38 (563965, BD Biosciences), PE anti-human CD90 (561970, BD Biosciences), PE-Cy5 anti-human CD123 (15-1239-41, eBioscience), PerCP-Cy5.5 anti-human CD45RA (45-0458-42), biotin anti-human CD3 (555338, BD Biosciences), biotin anti-human CD19 (555411, BD Biosciences), PE-Cy7 anti-human CD33 (333946, BD Biosciences) and APC anti-human CD34 (555824, BD Biosciences) followed by secondary staining with V500 streptavidin (561419, BD Biosciences). […]
In general terms: In xenograft studies the graft and the host belong to different species.

The subject of the next experiment is I-BET resistant clones. Description: Cell growth of I-BET resistant clones under JQ1. Type of experiment: cell-based, mouse. Particulars: 100 nM JQ1; FIG. 1C. On the procedure:
Following 72 hour incubation, resazurin was added to each well and plates were further incubated for 3 hours. Fluorescence was then read at 560 nm/590 nm on a Cytation 3 Imaging Reader (BioTek). Cell counts were performed using a haemocytometer. Determination of in vitro synergy in proliferation assays was undertaken according to the method of Zhao et al. (2014, Journal of molecular screening, 19: 817-821).

Take `COc1cc2c(cc1-c1c(C)noc1C)ncc1[nH]c(=O)n([C@H](C)c3ccccn3)c12` [I-BET, I-BET 151]: in experiment [1], the IC40 turned out to be 400 nM. The clonogenic potential entry in experiment [2] (1 μM I-BET, I-BET naive bulk leukaemia cells, FIG. 1D) is listed as “virtually eradicates”. The “I-BET mediated suppression of clonogenic capacity, induction of apoptosis and cell cycle arrest” value in experiment [2] (vehicle treated cells, FIG. 1D-F) is given as “exquisitely sensitive”; in the experiment on I-BET resistant cells it was “impervious”. Also, in experiment [3], the “L-GMPs able to survive in clonogenic assay” value is recorded as 30-40%. The survival result in experiment [4] is recorded as “significant survival advantage”; in experiment [5], “survival advantage is abrogated”. Also, the “effect on leukemic LMPP population (hCD45 expression)” value in experiment [6] is “enriches for the leukemic LMPP population”.
For the compound `Cc1sc2c(c1C)C(c1ccc(Cl)cc1)=N[C@@H](CC(=O)OC(C)(C)C)c1nnc(C)n1-2` [JQ1], the “resistance of I-BET resistant clones to JQ1” value in the experiment with I-BET resistant clones was “cross-resistance”.
